Laboratory results published in PubChem BioAssay (NCI).
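1) Cells in 96-well plates. 2) Compound, 48 h, 5 concentrations. 3) Linear interpolation between surrounding doses. 4) Unreached endpoint = highest concentration. Abbreviation: GI50, concentration required for 50% inhibition of growth. TGI marks complete inhibition of growth.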

Columns and labels:
Test in all cases: growth of human tumour cells (NCI), 48 h
[1] = tested on: A498 renal
[2] = tested on: EKVX NSCLC
[3] = tested on: HCT-116 colon
[4] = tested on: OVCAR-4 ovarian
[5] = tested on: SN12C renal
[6] = tested on: UACC-62 melanoma
[7] = tested on: CCRF-CEM leukemia
[8] = tested on: MDA-MB-231 breast
[9] = tested on: MDA-MB-435
[10] = tested on: T-47D breast

Structure (SMILES)	TGI [1]	TGI [2]	TGI [3]	TGI [4]	TGI [5]	TGI [6]	TGI [7]	TGI [8]	TGI [9]	TGI [10]	GI50 [1]	GI50 [7]	GI50 [2]	GI50 [8]	GI50 [9]	GI50 [4]	GI50 [5]	GI50 [10]	GI50 [6]
CCCCCCC(C)OC(=O)/C=C(\CC(=O)OC(C)CCCCCC)C(=O)OC(C)CCCCCC (stereo not drawn)	> 100 µM	> 100 µM	> 100 µM	> 100 µM	> 100 µM	> 100 µM	–	–	–	–	–	–	–	–	–	–	–	–	–
CSc1nc2c(=O)n(-c3ccccc3)c(=S)n(-c3ccccc3)c2s1	–	–	> 100 µM	> 100 µM	> 100 µM	–	> 100 µM	> 100 µM	> 100 µM	> 100 µM	–	–	–	–	–	–	–	–	–
CCOc1ccc2nc(NC(NC(=O)c3cccnc3)(C(F)(F)F)C(F)(F)F)sc2c1	–	79.4 µM	> 100 µM	> 100 µM	> 100 µM	91.6 µM	67.9 µM	> 100 µM	65.4 µM	58.4 µM	–	–	–	–	–	–	–	–	–
CCN(CC)CCCC(C)NC(=O)c1ccc2c(c1)C(=O)c1ccccc1C2=O (stereo not drawn)	42.3 µM	55.8 µM	51.7 µM	30.4 µM	37.6 µM	39.3 µM	61.2 µM	–	–	–	–	–	–	–	–	–	–	–	–
N#Cc1nc(CCC(c2nc(C#N)c(N)o2)N2C(=O)c3ccccc3C2=O)oc1N (stereo not drawn)	> 100 µM	> 100 µM	> 100 µM	> 100 µM	> 100 µM	> 100 µM	–	> 100 µM	> 100 µM	> 100 µM	–	–	–	–	–	–	–	–	–
CSCCC(NC(=O)OCc1ccccc1)NC(=O)OCc1ccccc1	–	–	> 100 µM	> 100 µM	> 100 µM	–	–	> 100 µM	> 100 µM	> 100 µM	–	–	–	–	–	–	–	–	–
Clc1c(C(Cl)(Cl)Cl)nsc1N1CCCCC1	46.1 µM	79.7 µM	76.6 µM	> 100 µM	80.9 µM	> 100 µM	40.5 µM	77.5 µM	66.1 µM	–	–	–	–	–	–	–	–	–	–
C=C(C)[C@@H]1CCC2=C[C@H](CC(C)=CC3=CC(C)=C(O3)[C@@H]1OC)OC2=O	> 100 µM	> 100 µM	–	> 100 µM	> 100 µM	> 100 µM	> 100 µM	87.3 µM	> 100 µM	> 100 µM	–	–	–	–	–	–	–	–	–
COc1ccc(-c2cc(-c3cc(F)c(Cl)cc3Cl)on2)cc1OC	–	> 100 µM	> 100 µM	> 100 µM	> 100 µM	–	> 100 µM	> 100 µM	16.9 µM	> 100 µM	–	–	–	–	–	–	–	–	–
CCOC(=O)C(C(=O)OCC)=C1NC2(c3ccccc3Nc3ccc(C)cc32)C(C(=O)OC)S1 (stereo not drawn)	> 100 µM	80.9 µM	> 100 µM	> 100 µM	18.2 µM	> 100 µM	> 100 µM	–	> 100 µM	67.2 µM	–	–	–	–	–	–	–	–	–
CCSc1nc(N)c2c(-c3ccccc3)c3c(nc2n1)CCC3	–	> 100 µM	> 100 µM	> 100 µM	> 100 µM	> 100 µM	> 100 µM	> 100 µM	> 100 µM	> 100 µM	–	–	–	–	–	–	–	–	–
CCN(CC)CCCOc1cc2c(cc1OC)C(=O)N1CCC[C@H]1C=N2	92.4 µM	> 100 µM	> 100 µM	> 100 µM	> 100 µM	54.3 µM	87.5 µM	> 100 µM	59.6 µM	–	–	–	–	–	–	–	–	–	–
COc1cc2c(cc1OCCCC(=O)Nc1cc(C(=O)NCCCN(C)C)n(C)n1)N=CC1CCCN1C2=O (stereo not drawn)	12.4 µM	> 62 µM	> 37.7 µM	14.1 µM	> 24.6 µM	–	–	> 39.9 µM	> 100 µM	> 100 µM	–	–	–	–	–	–	–	–	–
CCN(CC)C(=O)N1CN(c2ccccc2)C2(CCN(CCCSc3ccc(F)cc3)CC2)C1=O	–	33.6 µM	12.9 µM	> 100 µM	39.8 µM	–	> 100 µM	–	42.5 µM	47.1 µM	–	–	–	–	–	–	–	–	–
Oc1ccc(C#CCOc2ccccc2)cc1CNCCN(Cc1ccccn1)Cc1ccccn1	2.44 µM	3.33 µM	–	3.71 µM	2.65 µM	3.59 µM	10.7 µM	2.96 µM	3.44 µM	13.8 µM	1.19 µM	0.833 µM	1.24 µM	1.38 µM	1.82 µM	1.29 µM	1.08 µM	2.88 µM	1.68 µM
C#CC(O)/C=C/C(O)CCCC(O)CC#CC(O)C#CC(O)CCCC(O)/C=C/CCCC(=O)CCCCCCCCCCCCCCCC(O)C(O)C#CC(=O)O (stereo not drawn)	–	> 50 µM	> 50 µM	28.2 µM	> 50 µM	> 50 µM	36.3 µM	> 50 µM	> 50 µM	> 50 µM	–	–	–	–	–	–	–	–	–
CC[C@@]12C=CC(=S)N(CCSc3ccccc3)[C@@H]1c1c(n(S(=O)(=O)c3ccc(OC)cc3)c3ccccc13)CC2	> 100 µM	> 100 µM	> 100 µM	–	> 100 µM	> 100 µM	> 100 µM	> 100 µM	> 100 µM	> 100 µM	–	–	–	–	–	–	–	–	–
c1ccc(C(CCN2CC3CCC(CC3)C2)c2ccccc2)cc1	34.1 µM	> 100 µM	63.8 µM	> 100 µM	84.7 µM	35.3 µM	–	38.3 µM	65.4 µM	49.1 µM	–	–	–	–	–	–	–	–	–
O=c1c2ccccc2[nH]c2cc(O)cc(O)c12	–	–	> 100 µM	> 100 µM	> 100 µM	> 100 µM	> 100 µM	–	–	–	–	–	–	–	–	–	–	–	–
O=C1C(NCCN2CCOCC2)=C(Cl)C(=O)c2ncccc21	3.98 µM	2.79 µM	1.14 µM	–	2.74 µM	2.17 µM	1.1 µM	4.71 µM	0.343 µM	3.14 µM	–	–	–	–	–	–	–	–	–
NS(=O)(=O)c1nnc(NS(=O)(=O)c2ccccc2C(=O)O)s1	> 100 µM	> 100 µM	> 100 µM	> 100 µM	> 100 µM	> 100 µM	–	> 100 µM	> 100 µM	> 100 µM	–	–	–	–	–	–	–	–	–
CC(NC(C#N)CC12CC3CC(CC(C3)C1)C2)c1ccccc1 (stereo not drawn)	> 100 µM	> 100 µM	> 100 µM	–	–	> 100 µM	59.4 µM	> 100 µM	> 100 µM	> 100 µM	–	–	–	–	–	–	–	–	–
